What all share (format): cell-based, human
The test system of one test is Bcl-2 mRNA. As to the kind of experiment: RT-PCR of Bcl-2 mRNA in DU145. To be noted: DU145, 72 h, 0, 20 and 40 mM. As to the method: To identify the relative levels of expression of Bcl-2, Bax and Caspase 3 mRNAs after 0, 20 and 40 mM of D-allose treatments for 72 h, RT-PCR was performed. DU145 cell line (1×10^6 cells in triplicate culture plates) was harvested as mentioned above and total RNA was extracted using TRIzol reagent (Invitrogen, Carlsbad, Calif., USA) following a standard laboratory protocol. The RNA purity and concentrations were determined. Then 2 μg of total RNA was reversely transcribed to single-stranded cDNA using Oligo(dT)12-18 primer (Invitrogen, Carlsbad, Calif., USA) with M-MLV reverse transcriptase (Promega, Madison, Wis., USA). For PCR reaction, 4 μl of cDNA was reacted with 20 pmol each of the forward and reverse primers (Bioneer Corporation, Seoul, South Korea), and GoTaq® Green Master Mix […] containing PCR buffer, 25 mM magnesium chloride, 10 mM dNTP mix and Taq enzyme (Promega, Madison, Wis., USA), and amplified. […] The molecular sizes of the amplified products were determined by comparison with the molecular weight marker (100 by DNAladder; Promega, Madison, Wis., USA) run parallel with the PCR products. The densities of mRNA bands were analyzed by Molecular Analyst™, version 1.4.1 (Bio-Rad, Hercules, Calif., USA).

In the next test the test system is DU145 cell line. Description: Quantification of apoptosis by annexin-V/PI flow cytometry. As to the method: The Annexin-V-FLUOS Staining Kit (Roche Diagnostics GmbH, Mannheim, Germany) was used for the detection and quantification of the apoptotic cells. This kit uses a dual-staining protocol in which the apoptotic cells are stained with annexin-V (green fluorescence) and the necrotic cells are stained with propidium iodide (PI, red fluorescence). Briefly, DU145 cell line was grown at a density of 1×10^6 cells in triplicate culture plates and then treated with D-allose (0, 20 and 40 mM) for 48 and 72 h. The cells were treated with trypsin and harvested with PBS and processed for labeling with annexin-V and PI by the use of the kit according to the manufacturer's protocol. The fluorescence was measured by flow cytometric analysis, performed on a FACSCalibur (Becton Dickinson, San Jose, Calif., USA) using 488 nm excitation and a 515 nm band pass filter for fluorescein detection and a filter [600 nm for PI detection (FL1: Annexin-V-FLUOS; FL2: PI). Further, apoptotic indices were measured by analysis of fragmented or scattered nuclei and condensed chromosome as the stringent morphological criteria of apoptosis, detectable by confocal microscopy on cells stained with DNA-intercalating dye […] (DAPI). For this purpose, DU145 and PrEC cell lines were exposed to 0, 20 and 40 mM of D-allose for up to 72 h, stained with DAPI (1 μg/ml in methanol), mounted with Prolong Antifade reagent (Molecular Probes, Eugene, Oreg., USA), and images were acquired by use of a confocal laser scanning microscope (Fluoview FV 1000, Olympus, Japan). The numbers of apoptotic nuclei per 100 cells were counted from the five high power fields/slide and apoptotic indices were expressed as a percentage of the untreated controls in each cell line, considering the value as 100%. DU145 cell line was also treated with 0-40 mM of D-glucose for determination of apoptotic indices as mentioned above.
A general note: A flow cytometer gives signals particle by particle.

In the next test the test system is Bcl-2/Bax ratio. Description: Calculation of Bcl-2/Bax ratio from densitometry of protein bands. As to conditions: 72 h, 0.896 at 0 Mm. As for the experimental part:
After 0, 20 and 40 mM of D-allose treatments for 72 h, DU145 cell line (1×10^6 cells in triplicate culture plates) was harvested into cell lysis buffer (Cell Signaling, Danvers, Mass., USA) supplemented with 1 mM PMSF. The cells were then sonicated, centrifuged and protein concentration was measured by Bradford assay with the Bio-Rad protein assay solution using bovine serum albumin (BSA) as standard. Proteins (30 μg) were separated on a 12.5% SDS-PAGE under reducing conditions and transferred onto a PVDF membrane (Santa Cruz Biotechnology, Santa Cruz, Calif., USA). Prestained protein marker, broad range: 6-175 kDa (New England Biolabs Inc., Ipswich, Mass., USA) run in parallel for detection of the molecular weights of the proteins. […] Membrane was probed with a goat derived horseradish peroxidase-conjugated anti-rabbit IgG (1:1000; Santa Cruz Biotechnology, Santa Cruz, Calif., USA), and proteins were detected by the enhanced chemiluminescence (ECL) detection system according to the vendor's protocol (Amersham Biosciences, Piscataway, N.J., USA) followed by X-ray exposure. […] Bcl-2/bax ratios of D-allose treated groups were calculated on the basis of the densitometric analysis of the corresponding protein bands and compared the values with that of the untreated control.

In the case of `O=C[C@H](O)[C@H](O)[C@H](O)[C@H](O)CO` [D-allose], in the test on Bcl-2 mRNA, the “Bcl-2 mRNA expression” value is listed as “significantly reduced”. The “apoptotic cells (annexin-V/PI)” value in the test with DU145 cell line (DU145, 20 mM, 48 h, untreated control 1.2%) came out at 5.1%; in the test on DU145 cell line (DU145, 20 mM, untreated control 2.3%), 11.9%; in the test with DU145 cell line (DU145, 40 mM, 48 h, untreated control 1.2%), 8.7%; with DU145 cell line (DU145, 40 mM, untreated control 2.3%) it was 23.5%. Further, the Bcl-2/Bax ratio in the test on Bcl-2/Bax ratio (DU145, 20 Mm) is given as 0.335; in the test with Bcl-2/Bax ratio (DU145, 40 Mm), 0.126.

The values above are taken from patent US20110071094A1, “(D)-ALLOSE INDUCING PROGRAMMED CELL DEATH IN HORMONE REFRACTORY PROSTATE CANCER LINES” (INDUSTRY-ACADEMIC COOPERATION FOUDATION, GYEONGSANG …, priority 2008, published 2011).
